Converted amounts (≈) assume the structure as drawn. Read-outs that look alike come from different tables or passages of the source.
What was measured:
[1] = system: ticks (Ixodes scapularis); parameters: method as in internal Sponsor’s data; settings: plasma level, ref internal Sponsor’s data; cited from earlier work
[2] = Study #2: dose proportionality/linearity after a single topical dose of NexGard Combo at 0.5x, 1x, 2x; assay type: in vivo, cats
Method: Blood samples were collected prior to treatment and over a period of 91 days after the treatment, as detailed in Table 1. […] Dose proportionality for the three active ingredients was assessed by calculating the linear relationship between AUC or Cmax and the dose using the simple linear regression model.

[3] = first (pilot) study; topical esafoxolaner only, twice at a 28-day interval, 23× the maximum exposure dose; cats; cited from earlier work
C. felis = system: C. felis; parameters: method as in internal Sponsor’s data; settings: plasma level, ref internal Sponsor’s data; cited from earlier work
[4] = in vivo
From the text: (§1) All topical treatments were applied on one spot directly on the skin, after parting the hair, in the midline of the neck between the base of the skull and the shoulder blades. The intra-venous injection was given in the cephalic vein.
(§2) All blood samples were collected into lithium heparin tubes and processed into plasma by centrifugation.
(§3) This study was designed to evaluate the main pharmacokinetic parameters (Cmax, Tmax, Clast, Tlast, half-life, AUC, bioavailability) of the three compounds administered topically once in the novel formulation at the recommended minimum dose, and the non-interference of the three compounds between each other.
(§4) Group 2 was treated topically with esafoxolaner alone, formulated with identical solvents/excipients as those of the novel formulation, for non-interference evaluation of esafoxolaner. […] Group 4 was treated intravenously with esafoxolaner for bioavailability calculation of topical esafoxolaner in the novel formulation.
(§5) The cat plasma samples and internal standards were subjected to semi-automated solid phase extraction in a 96-well plate format followed by reversed-phase HPLC with gradient elution. The extracted analytes were quantified by an AB Sciex API 5000 mass spectrometer system using an electrospray interface. […] Chromatograms were integrated by the Analyst® 1.6.2 software and peak areas were determined.
(§6) The validated lower and upper limits of quantitation were 0.2 and 100 ng/mL, respectively. Sample concentrations were determined based on a fortified matrix calibration curve ranging from 0.2 to 100 ng/mL for each analyte with quality control samples, control plasma samples, and acceptance criteria according to EMA and FDA guidelines [4, 7]. Repeatability (precision), accuracy, assay specificity, dilution, recovery and matrix effect, carryover, stability in plasma and all solutions was established.
(§7) Pharmacokinetic (PK) parameters were calculated from individual plasma concentrations using the non-compartmental analysis function of WinNonlin® software (Phoenix 64 Build, version 6.3). The non-compartmental approach was consistent with the extravascular (topical) or IV bolus route of administration.
(§8) The peak drug plasma concentration Cmax and the time from dosing to the maximum concentration values Tmax were obtained directly from plasma concentration versus time data for each cat and then averaged for each topical treatment group. The terminal elimination phase was determined using at least the final three observed concentrations and not including Cmax. The first order rate constant, λz, associated with the terminal log-linear portion of the curve was estimated via linear regression of the log plasma concentration versus time curve. The terminal plasma half-life using ln (2)/λz was calculated for each animal, and then averaged for each treatment group. The area under the concentration versus time curve (AUC) from the time of dosing to the time to the last quantifiable concentration (AUC0−Tlast) was calculated using the linear up, log down trapezoidal method, and extrapolated to infinity (AUC0−inf) using the formula AUC0−Tlast + Clast/λz.
(§9) The systemic clearance of esafoxolaner in plasma (Cls) defined as dose/AUC0−inf, and the volume of distribution at steady state (Vss), which is AUMC0−inf/AUC0−inf × Cls, was calculated from WinNonlin® for the IV esafoxolaner group only. Due to the long terminal plasma half-life of esafoxolaner, each cat was not used as its own control and bioavailability was calculated on the average.

in vivo = settings: topical or ocular, 10 mg/kg
From the text: as §1, §2, §3, §4, §5, §6, §7, §8, §9

[5] = parameters: method as in PMID 24703069; settings: topical Broadline; cats; cited from earlier work
ear mites = system: ear mites; parameters: method as in PMID 29887026; settings: off-label in cats, 2.5 mg/kg; cited from earlier work
[6] = Study #2: multiple-dose kinetics, accumulation and time to steady state (five topical doses at 28-day intervals); assay type: in vivo; settings: repeated topical NexGard Combo at minimum recommended dose at 4-week intervals; cats
Method: Group 4, the accumulation and time to steady state group, was treated five times at 28-day intervals, topically with NexGard® Combo at the minimum recommended dose. In this group, blood samples were collected prior to each treatment, during the 4 weeks following each treatment, and for 8 weeks after the last treatment, as detailed in Table 1.
Chromatograms were integrated by the Analyst® 1.6.2 software and peak areas were determined.
The validated lower and upper limits of quantitation were 0.2 and 100 ng/mL, respectively. Sample concentrations were determined based on a fortified matrix calibration curve ranging from 0.2 to 100 ng/mL for each analyte with quality control samples, control plasma samples, and acceptance criteria according to EMA and FDA guidelines.
Accumulation ratios were calculated using Cmax and AUC for the three active ingredients after the 1st and 5th dose following five topical doses of the novel formulation.

[7] = Study #1: single-dose pharmacokinetics and non-interference in cats (plasma, LC-MS/MS); settings: NexGard Combo single topical at minimum recommended dose
From the text: as §1, §2, §3, §4, §5, §6, §7, §8, §9

[8] = 0.5× group compared to 1× group
[9] = NexGard Combo single topical 0.5× (esafoxolaner 0.72, praziquantel 5, eprinomectin 0.25 mg/kg), cats, mean
[10] = NexGard Combo single topical 1× (esafoxolaner 1.44, praziquantel 10, eprinomectin 0.5 mg/kg), cats, mean
[11] = NexGard Combo single topical 2× (esafoxolaner 2.88, praziquantel 20, eprinomectin 1 mg/kg), cats, mean

O=C(CNC(=O)c1ccc(C2=NO[C@@](c3cc(Cl)cc(C(F)(F)F)c3)(C(F)(F)F)C2)c2ccccc12)NCC(F)(F)F [Esafoxolaner, esafoxolaner]
EC90 [1]: 0.0431 µg/mL (≈ 0.0689 µM) | dose proportionality of PK parameters ([2]; in vivo): dose-proportional | persistence of a quantifiable plasma concentration ([2]; in vivo): more than 13 weeks | adverse reactions [3]: no significant adverse reactions | EC90 (C. felis): 0.0191 ± 0.0021 µg/mL (≈ 0.0305 µM) | Vss (volume of distribution) [4]: 4.0 L/kg | absolute (topical) bioavailability [4]: 47.2% | time until which efficacious plasma levels (EC90) were maintained, from 24 h [4]: 6-8 weeks | AUC0−Tlast ([4]; iv, 1.44 mg/kg): 9586 ± 1985 ng·days/mL | AUC0−inf ([4]; iv, 1.44 mg/kg): 10,542 ± 2029 day × ng/mL | Cl (systemic clearance) ([4]; iv, 1.44 mg/kg): 5.87 ± 1.23 mL/h/kg | T1/2 (plasma half-life) ([4]; iv, 1.44 mg/kg): 504 ± 101 h | Vss (volume of distribution at steady-state) ([4]; iv, 1.44 mg/kg): 4.016 ± 1.19 L/kg | half-life, range of individuals ([4]; iv, 1.44 mg/kg): 355 to 631 h | AUC0−Tlast ([4]; topical or ocular, 1.44 mg/kg): 6368 ± 1665 ng·days/mL | AUC0−inf ([4]; topical or ocular, 1.44 mg/kg): 7181 ± 2250 ng·days/mL | Cmax ([4]; topical or ocular, 1.44 mg/kg): 218 ± 68 ng/mL | T1/2 (plasma half-life) ([4]; topical or ocular, 1.44 mg/kg): 499 ± 154 h | Tmax ([4]; topical or ocular, 1.44 mg/kg): 90 ± 74.4 h | individual plasma half-lives (range) ([4]; topical or ocular, 1.44 mg/kg): 19.4 to 27.8 days

O=C(C1CCCCC1)N1CC(=O)N2CCc3ccccc3C2C1 (stereo not drawn) [Praziquantel, praziquantel]
Cmax (in vivo): 107 ± 59 ng/mL | Tmax (in vivo): 7.01 h | half-life (in vivo): 103 h | Cmax ([2]; in vivo, topical or ocular, 5 mg/kg): 54.7 ± 28.8 ng/mL | Cmax ([2]; in vivo, topical or ocular, 10 mg/kg): 126 ± 87.2 ng/mL | Cmax ([2]; in vivo, topical or ocular, 20 mg/kg): 317 ± 209 ng/mL | bioavailability in the Broadline formulation [5]: 45% | time at which maximum concentrations were reached (range) ([4]; cat): 4 to 8 h | time of last quantifiable plasma concentrations (range) ([4]; cat): 7 to 42 days

O=C(CNC(=O)c1ccc(C2=NOC(c3cc(Cl)cc(C(F)(F)F)c3)(C(F)(F)F)C2)c2ccccc12)NCC(F)(F)F (stereo not drawn) [afoxolaner]
acaricidal efficacy against ear mites (ear mites): efficacious

eprinomectin
AUC0−Tlast Ratio [2, 8]: 0.5 | Cmax Ratio [2, 8]: 0.4 | dose proportionality of PK parameters ([2]; 0.5× to 2× the minimum dose (esafoxolaner 0.72–2.88, praziquantel 5–20, eprinomectin 0.25–1.0 mg/kg), single topical NexGard Combo): dose-proportional | AUC0−Tlast Ratio ([2]; 2× group compared to 1× group): 2.4 | Cmax Ratio ([2]; 2× group compared to 1× group): 2.3 | AUC0−Tlast [2, 9]: 53.6 ± 19.9 ng·days/mL | Cmax [2, 9]: 9.44 ± 4.26 ng/mL | AUC0−Tlast [2, 10]: 97.8 ± 37.4 ng·days/mL | Cmax [2, 10]: 24.1 ± 20.8 ng/mL | AUC0−Tlast [2, 11]: 233 ± 133 ng·days/mL | Cmax [2, 11]: 54.3 ± 35.8 ng/mL | dose by which steady state was reached [6]: fifth and five | mean Tmax [7]: 35 h | time to concentrations below the limit of quantitation, on average ([7]; LLOQ 0.2 ng/mL): 28 days | bioavailability in the Broadline formulation [5]: 31%

From publication PMC8019567 (Parasite, 2021)
